Our source for the DC50 values is patent publication US20260053932A1, “COMPOUNDS AND METHODS FOR THE TARGETED DEGRADATION OF ANDROGEN RECEPTOR AND ASSOCIATED METHODS OF USE” (Arvinas Operations, Inc., priority 2020, published 2026).

The structures appear in SMILES notation.

For the experiment, the system named is androgen receptor (AR) in LNCaP and/or VCaP cells. In words: Androgen Receptor ELISA assay (AR degradation). It is filed as cell-based. As to conditions: degradation of AR ELISA in LNCaP and/or VCaP cells; Table 2C; read-out: DC50 Code*. In outline:
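VCaP cells grown ≥3 days, then treated 5 h with compound in media containing 1 nM R1881 (10× stock). Cells lysed and AR quantified by sandwich ELISA (mouse AR detection Ab, HRP anti-mouse, TMB). DC50 and Dmax derived from AR degradation.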
Turning to `COc1cc(O[C@H]2C[C@H](N(CC(F)F)CC3CCN(c4ccc(C(=O)N[C@H]5C(C)(C)[C@H](Oc6ccc(C#N)c(Cl)c6)C5(C)C)cc4)CC3)C2)cc2c1C(=O)N(C1CCC(=O)NC1=O)C2=O` (some centres unmarked) [compound 136, N-((1r,3r)-3-(3-chloro-4-cyanophenoxy)-2,2,4,4-tetramethylcyclobutyl)-4-(4-(((2,2-difluoroethyl)((1r,3r)-3-((2-(2,6-dioxopiperidin-3-yl)-7-methoxy-1,3-dioxoisoindolin-5-yl)oxy)cyclobutyl)amino)methyl)piperidin-1-yl)benzamide], the 50% degradation concentration (DC50) fell in the range of 0.001 to 0.01 µM.

Regarding `COc1cc(O[C@H]2C[C@H](N(CC(F)F)CC3CCN(c4cnc(C(=O)N[C@H]5C(C)(C)[C@H](Oc6ccc(C#N)c(Cl)c6)C5(C)C)cn4)CC3)C2)cc2c1C(=O)N(C1CCC(=O)NC1=O)C2=O` (some centres unmarked) [compound 137, N-((1r,3r)-3-(3-chloro-4-cyanophenoxy)-2,2,4,4-tetramethylcyclobutyl)-5-(4-(((2,2-difluoroethyl)((1r,3r)-3-((2-(2,6-dioxopiperidin-3-yl)-7-methoxy-1,3-dioxoisoindolin-5-yl)oxy)cyclobutyl)amino)methyl)piperidin-1-yl)pyrazine-2-carboxamide], the DC50 is 0.01 to 0.1 µM.

Turning to `CC(C)N(CC1CCN(c2cnc(C(=O)N[C@H]3C(C)(C)[C@H](Oc4ccc(C#N)c(Cl)c4)C3(C)C)cn2)CC1)[C@H]1C[C@H](Oc2ccc3c(c2)C2(CC2)N(C2CCC(=O)NC2=O)C3=O)C1` (some centres unmarked) [compound 138, N-((1r,3r)-3-(3-chloro-4-cyanophenoxy)-2,2,4,4-tetramethylcyclobutyl)-5-(4-((((1r,3r)-3-((2′-(2,6-dioxopiperidin-3-yl)-3′-oxospiro[cyclopropane-1,1′-isoindolin]-6′-yl)oxy)cyclobutyl) (isopropyl)amino)methyl)piperidin-1-yl)pyrazine-2-carboxamide], the DC50 is above 0.1 µM.

Regarding `CC1(C)[C@H](NC(=O)c2ccc(N3CCC(CN4CCN(c5ccc6c(c5)C5(CC5)N(C5CCC(=O)NC5=O)C6=O)CC4)CC3)cc2)C(C)(C)[C@H]1Oc1ccc(C#N)c(Cl)c1` (some centres unmarked) [compound 139, N-((1r,3r)-3-(3-chloro-4-cyanophenoxy)-2,2,4,4-tetramethylcyclobutyl)-4-(4-((4-(2′-(2,6-dioxopiperidin-3-yl)-3′-oxospiro[cyclopropane-1,1′-isoindolin]-6′-yl)piperazin-1-yl)methyl)piperidin-1-yl)benzamide], the DC50 was above 0.1 µM.

Turning to `CC1(C)[C@H](NC(=O)c2ccn([C@H]3CC[C@H](CCCOc4ccc5c(c4)C(=O)N(C4CCC(=O)NC4=O)C5=O)CC3)n2)C(C)(C)[C@H]1Oc1ccc(C#N)c(Cl)c1` (stereo partly drawn) [compound 140, N-((1r,3R)-3-(3-chloro-4-cyanophenoxy)-2,2,4,4-tetramethylcyclobutyl)-1-((1r,4R)-4-(3-((2-(2,6-dioxopiperidin-3-yl)-1,3-dioxoisoindolin-5-yl)oxy)propyl)cyclohexyl)-1H-pyrazole-3-carboxamide], the DC50 was above 0.1 µM.

On to `CC(C)N(CC1CCN(c2cnc(C(=O)N[C@H]3C(C)(C)[C@H](Oc4ccc(C#N)c(Cl)c4)C3(C)C)cn2)CC1)[C@H]1C[C@H](Oc2ccc3c(c2)C(=O)N(C2CCC(=O)NC2=O)C32CC2)C1` (some centres unmarked) [compound 141, N-((1r,3r)-3-(3-chloro-4-cyanophenoxy)-2,2,4,4-tetramethylcyclobutyl)-5-(4-((((1r,3r)-3-((2′-(2,6-dioxopiperidin-3-yl)-3′-oxospiro[cyclopropane-1,1′-isoindolin]-5′-yl)oxy)cyclobutyl) (isopropyl)amino)methyl)piperidin-1-yl)pyrazine-2-carboxamide], for which the DC50 is above 0.1 µM.

For `CC1(C)[C@H](NC(=O)c2ccc(N3CCC(CN4CCN(c5ccc6c(c5)C(=O)N(C5CCC(=O)N(O)C5=O)C6=O)CC4)CC3)cc2)C(C)(C)[C@H]1Oc1ccc(C#N)c(Cl)c1` (some centres unmarked) [compound 142, N-((1r,3r)-3-(3-chloro-4-cyanophenoxy)-2,2,4,4-tetramethylcyclobutyl)-4-(4-((4-(2-(1-hydroxy-2,6-dioxopiperidin-3-yl)-1,3-dioxoisoindolin-5-yl)piperazin-1-yl)methyl)piperidin-1-yl)benzamide], the DC50 is above 0.1 µM.

Regarding `Cc1cc(O[C@H]2C(C)(C)[C@H](NC(=O)c3cnc(N4CC(CCN5CCC(Oc6ccc7c(c6)C(=O)N(C6CCC(=O)NC6=O)C7=O)CC5)C4)cn3)C2(C)C)cc(C)c1C#N` (some centres unmarked) [compound 143, N-((1r,3r)-3-(4-cyano-3,5-dimethylphenoxy)-2,2,4,4-tetramethylcyclobutyl)-5-(3-(2-(4-((2-(2,6-dioxopiperidin-3-yl)-1,3-dioxoisoindolin-5-yl)oxy)piperidin-1-yl)ethyl)azetidin-1-yl)pyrazine-2-carboxamide], the DC50 was above 0.1 µM.

In the case of `COCCOCCOCCN(CC1CCN(c2ncc(C(=O)N[C@H]3C(C)(C)[C@H](Oc4cc(C)c(C#N)c(C)c4)C3(C)C)cn2)CC1)[C@H]1C[C@H](Oc2ccc3c(c2)C(=O)N(C2CCC(=O)NC2=O)C3=O)C1` (some centres unmarked) [compound 144, N-((1r,3r)-3-(4-cyano-3,5-dimethylphenoxy)-2,2,4,4-tetramethylcyclobutyl)-2-(4-(2-((1r,3r)-3-((2-(2,6-dioxopiperidin-3-yl)-1,3-dioxoisoindolin-5-yl)oxy)cyclobutyl)-5,8,11-trioxa-2-azadodecyl)piperidin-1-yl)pyrimidine-5-carboxamide], the DC50 is below 0.001 µM.

As for `COCCOCCOCCOCCN(CC1CCN(c2ncc(C(=O)N[C@H]3C(C)(C)[C@H](Oc4cc(C)c(C#N)c(C)c4)C3(C)C)cn2)CC1)[C@H]1C[C@H](Oc2ccc3c(c2)C(=O)N(C2CCC(=O)NC2=O)C3=O)C1` (some centres unmarked) [compound 145, N-((1r,3r)-3-(4-cyano-3,5-dimethylphenoxy)-2,2,4,4-tetramethylcyclobutyl)-2-(4-(2-((1r,3r)-3-((2-(2,6-dioxopiperidin-3-yl)-1,3-dioxoisoindolin-5-yl)oxy)cyclobutyl)-5,8,11,14-tetraoxa-2-azapentadecyl)piperidin-1-yl)pyrimidine-5-carboxamide], the DC50 is below 0.001 µM.

With `CCN(CC1CCN(c2ccc(C(=O)N[C@H]3C(C)(C)[C@H](Oc4ccc(C#N)c(OC)c4)C3(C)C)cc2)CC1)[C@H]1C[C@H](Oc2ccc3c(c2)C(=O)N(C2CCC(=O)NC2=O)C3=O)C1` (some centres unmarked) [compound 147, N-((1r,3r)-3-(4-cyano-3-methoxyphenoxy)-2,2,4,4-tetramethylcyclobutyl)-4-(4-((((1r,3r)-3-((2-(2,6-dioxopiperidin-3-yl)-1,3-dioxoisoindolin-5-yl)oxy)cyclobutyl)(ethyl)amino)methyl)piperidin-1-yl)benzamide], the DC50 is below 0.001 µM.

On to `Cc1cc(O[C@H]2C(C)(C)[C@H](NC(=O)c3ccc(CN4CCOC[C@@H]4CN(C)[C@H]4C[C@H](Oc5ccc6c(c5)C(=O)N(C5CCC(=O)NC5=O)C6=O)C4)cc3)C2(C)C)cc(C)c1C#N` (stereo partly drawn) [compound 148, N-((1r,3R)-3-(4-cyano-3,5-dimethylphenoxy)-2,2,4,4-tetramethylcyclobutyl)-4-(((3R)-3-((((1r,3R)-3-((2-(2,6-dioxopiperidin-3-yl)-1,3-dioxoisoindolin-5-yl)oxy)cyclobutyl) (methyl)amino)methyl)morpholino)methyl) benzamide], for which the DC50 was below 0.001 µM.

For `Cc1cc(O[C@H]2C(C)(C)[C@H](NC(=O)c3ccc(CN4CCOC[C@@H]4CN(C)[C@H]4C[C@H](Oc5ccc6c(c5)C(=O)N(C5CCC(=O)NC5=O)C6=O)C4)cc3)C2(C)C)cc(C)c1C#N` (stereo partly drawn) [compound 151, N-((1r,3S)-3-(4-cyano-3,5-dimethylphenoxy)-2,2,4,4-tetramethylcyclobutyl)-4-(((3S)-3-((((1r,3S)-3-((2-(2,6-dioxopiperidin-3-yl)-1,3-dioxoisoindolin-5-yl)oxy)cyclobutyl) (methyl)amino)methyl)morpholino)methyl) benzamide], the DC50 was below 0.001 µM.

Take `Cc1cc(O[C@H]2C(C)(C)[C@H](NC(=O)c3ccc(N4CCC(CN(C)[C@H]5CC[C@@H](Oc6ccc7c(c6)C(=O)N(C6CCC(=O)NC6=O)C7=O)C5)CC4)cc3)C2(C)C)cc(C)c1C#N` (stereo partly drawn) [compound 152, N-((1r,3S)-3-(4-cyano-3,5-dimethylphenoxy)-2,2,4,4-tetramethylcyclobutyl)-4-(4-((((1S,3R)-3-((2-(2,6-dioxopiperidin-3-yl)-1,3-dioxoisoindolin-5-yl)oxy)cyclopentyl) (methyl)amino)methyl)piperidin-1-yl)benzamide]: the DC50 is below 0.001 µM.

Regarding `Cc1cc(O[C@H]2C(C)(C)[C@H](NC(=O)c3ccc(N4CCC(CN(C)[C@H]5CC[C@H](Oc6ccc7c(c6)C(=O)N(C6CCC(=O)NC6=O)C7=O)C5)CC4)cc3)C2(C)C)cc(C)c1C#N` (stereo partly drawn) [compound 154, N-((1r,3S)-3-(4-cyano-3,5-dimethylphenoxy)-2,2,4,4-tetramethylcyclobutyl)-4-(4-((((1S,3S)-3-((2-(2,6-dioxopiperidin-3-yl)-1,3-dioxoisoindolin-5-yl)oxy)cyclopentyl) (methyl)amino)methyl)piperidin-1-yl)benzamide], the DC50 was below 0.001 µM.

On to `COCCOCCOCCOCCOCCN(CC1CCN(c2ncc(C(=O)N[C@H]3C(C)(C)[C@H](Oc4cc(C)c(C#N)c(C)c4)C3(C)C)cn2)CC1)[C@H]1C[C@H](Oc2ccc3c(c2)C(=O)N(C2CCC(=O)NC2=O)C3=O)C1` (some centres unmarked) [compound 155, N-((1r,3r)-3-(4-cyano-3,5-dimethylphenoxy)-2,2,4,4-tetramethylcyclobutyl)-2-(4-(2-((1r,3r)-3-((2-(2,6-dioxopiperidin-3-yl)-1,3-dioxoisoindolin-5-yl)oxy)cyclobutyl)-5,8,11,14,17-pentaoxa-2-azaoctadecyl)piperidin-1-yl)pyrimidine-5-carboxamide], for which the DC50 is below 0.001 µM.

For `CC1(C)[C@H](NC(=O)c2ccc(N3CCC(CN4CCN(c5ccc6c(c5)C(=O)N([C@]5(C#N)CCC(=O)NC5=O)C6)CC4)CC3)cc2)C(C)(C)[C@H]1Oc1ccc(C#N)c(Cl)c1` [compound 156, N-((1r,3r)-3-(3-chloro-4-cyanophenoxy)-2,2,4,4-tetramethylcyclobutyl)-4-(4-((4-(2-((S)-3-cyano-2,6-dioxopiperidin-3-yl)-3-oxoisoindolin-5-yl)piperazin-1-yl)methyl)piperidin-1-yl)benzamide], the half-maximal degradation concentration (DC50) was above 0.1 µM.
